# Test results reported in patent US20210355450A1, “CERVICAL CANCER ORGANOIDS” (Max-Planck-Gesellschaft zur Förderung der Wissenschaften …, priority 2018, published 2021).
# “Also recorded” adds a separate entry of the source.
# B1: RSPO1: Wnt agonist R-spondin 1, supplied as 25% conditioned medium (protein, UniProt Q2MKA7 21-263, looked up)
# R-spondin-1: SRGIKGKRQRRISAEGSQACAKGCELCSEVNGCLKCSPKLFILLERNDIRQVGVCLPSCPPGYFDARNPDMNKCIKCKIEHCEACFSHNFCTKCKEGLYLHKGRCYPACPEGSSAANGTMECSSPAQCEMSEWSPWGPCSKKQQLCGFRRGSEERTRRVLHAPVGDHAACSDTKETRRCTVRRVPCPEGQKRRKGGQGRRENANRNLARKESKEAGAGSRRRKGQQQQQQQGTVGPLTSAGPA
# modifications: conditioned medium
# notes: Wnt agonist R-spondin 1, supplied as 25% conditioned medium
# Tests used:
# [1] = system: mouse ectocervical organoids; test: Mouse ectocervical organoid culture: formation and expansion; assay type: cell-based; conditions: for formation and expansion of squamous stratified organoids from single ectocervical stem cells: Wnt3a and RSPO1 together present in culture medium, mouse; for effect of presence or absence of Wnt pathway activators on murine organoid culture: murine ectocervical organoid medium
# Protocol: Cervical cells were cultured in ADF medium (Invitrogen, #12634) supplemented with 12 mM HEPES (Invitrogen, #15630-056), 1% GlutaMax (Invitrogen, #35050-038), 1% B27 (Invitrogen, #17504-044), 1% N2 (Invitrogen, #17502048), 50 ng/ml mouse epidermal growth factor (EGF) (Invitrogen, #PMG8043), 100 ng/ml mouse noggin (Peprotech, #250-38-100), 100 ng/ml human fibroblast growth factor (FGF)-10 (Peprotech, #100-26-25), 1.25 mM N-acetyl-L-cysteine (Sigma, #A9165-5G), 10 mM nicotinamide, (Sigma, #N0636), 2 μM TGF-β R Kinase Inhibitor IV (Calbiochem, #616454), 10 μM ROCK inhibitor (Y-27632) (Sigma, #Y0503), 1% penicillin/streptomycin (Gibco, #15140-122) with or without 25% Wnt3A- and 25% R-spondin1-conditioned medium, as described in Willert et al (46) and Farin et al (47).
# (§1) Cells isolated from tissue or the stem cells grown in 2D culture were mixed with 50 μl of ice cold Matrigel (BD, #356231) at a density of 20,000 cells, and the Matrigel droplet was placed in a pre-warmed 24-well plate and allowed to polymerize for 10 min at 37° C. The Matrigel droplet was then overlaid with 500 μl of pre-warmed human ecto- or endocervical medium. Cultures were kept at 37° C., 5% CO2 in a humidified incubator for 2-3 weeks and medium replaced every four days. For passaging the organoids, Matrigel was first dissolved by adding 1 ml of ice cold ADF and pipetting up and down 5 times. Organoids were collected in a 15 ml Falcon tube and a further 4 ml of ice cold ADF medium was added and organoids resuspended well to completely dissolve the Matrigel, followed by centrifugation at 300×g for 5 mins at 4° C. Medium was discarded and the ectocervical and mouse organoids were incubated with 1 ml of TrypLE Express for 30 min at 37° C. followed by mechanical fragmentation using a fire-polished glass Pasteur pipette by vigorous pipetting (8-10 times) to generate single cells. The single cells were then seeded at a 1:10 ratio back into Matrigel for expanding and culturing. Endocervical organoids were subjected to mechanical fragmentation as described above after centrifugation to generate fragments that were seeded back into Matrigel at 1:5 ratio. Matrigel was allowed to polymerize for 10 min at 37° C., overlaid with pre-warmed medium and cultured as described above.
# (§2) Stem cells were counted and a defined number resuspended in 50 μl of Matrigel to generate organoids as described above. Between 2-3 weeks after plating images were taken of the whole well and the number and area of organoids formed were determined using ImageJ to calculate organoid forming efficiency.
# [2] = system: human ectocervical organoids; test: Human ectocervical organoid culture: formation, growth, differentiation; assay type: cell-based; conditions: for formation and expansion of squamous stratified organoids from single ectocervical stem cells: Wnt3a and RSPO1 together present in culture medium, human
# Protocol: The medium consisted of ADF, 12 mM HEPES and 1% GlutaMax, supplemented with 1% B27, 1% N2, 0.5 μg/ml hydrocortisone (Sigma, #H0888-1G), 10 ng/ml human EGF (Invitrogen, #PHG0311), 100 ng/ml human noggin (Peprotech; #120-10C), 100 ng/ml human FGF-10 (Peprotech, #100-26-25), 1.25 mM N-acetyl-L-cysteine, 10 mM nicotinamide, 2 μM TGF-β R kinase Inhibitor IV, 10 μM ROCK inhibitor (Y-27632), 10 μM forskolin (Sigma, F6886) and 1% penicillin/streptomycin.
# as §1, §2
# Organoids were washed with cold PBS five times to remove Matrigel before fixing with 4% paraformaldehyde for 1 h at room temperature (RT) followed by washing with PBS twice. Organoids were then subjected to dehydration in an ascending ethanol series followed by isopropanol and acetone for 20 min each. The dehydrated organoids were paraffin embedded and 5 μm sections cut on a Microm HM 315 microtome. Mouse and human tissues were extensively washed with PBS and fixed using 4% PFA overnight at RT. Samples were subjected to dehydration in an ascending ethanol series followed by isopropanol and xylene (60 mins each) followed by paraffinization using a Leica TP1020 tissue processor. The tissue was embedded and 5 μm sections cut on a microtome. For immunostaining, paraffin sections were deparaffinized and rehydrated, followed by treatment with antigen retrieval solution (Dako, #S1699). Sections were blocked using blocking buffer (1% BSA and 2% FCS in PBS) for 1 h at RT. Primary antibodies were diluted in blocking buffer and incubated for 90 min at RT followed by five PSB washes before 1 h incubation with secondary antibodies diluted in blocking buffer along with Hoechst or Draq5. Sections were washed with PBS five times and mounted using Mowiol. […]
Molecule,formation and expansion of squamous stratified organoids from single ectocervical stem cells [1],effect of presence or absence of Wnt pathway activators on murine organoid culture [1],formation and expansion of squamous stratified organoids from single ectocervical stem cells [2],"organoid growth (area of organoids) ([2]; grown in presence of γ-secretase inhibitor (Notch inhibition), FIG. 3H, 11D)","proliferation of organoids (Ki67) ([2]; presence of γ-secretase inhibitor, FIG. 3I)","differentiation and stratification of organoids ([2]; presence of γ-secretase inhibitor, immunolabelling CDH1, Ki67, p63, FIG. 3I)"
Wnt3a,detrimental,not to substantially effect,detrimental,,,
C[C@H](NC(=O)Cc1cc(F)cc(F)c1)C(=O)N[C@@H]1C(=O)N(C)c2ccccc2-c2ccccc21 [DBZ],,,,reduced organoid growth,reduces proliferation,failed to differentiate and stratify; also recorded: prevents differentiation
B1,detrimental,not to substantially effect,detrimental,,,
